Laboratory results taken from US11679110B2, “Methods of treating disorders using CSF1R inhibitors” (Deciphera Pharmaceuticals, LLC, priority 2018, dated 2023).
Read-outs that look alike come from different tables or passages of the source.

Test: Plasma pharmacokinetics of Compound 1 in patients with advanced solid tumor malignancies and TGCT
Format: in vivo, human
Details: for Cmax / AUC(0-t) / Tmax: human, plasma, oral; for Tmax: Median (Min, Max)
Method: PK analysis was conducted on all 38 patients. Serial blood samples were collected for PK and took place on either Day −7, Cycle 1, Day 1 (C1D1) and C2D1 at pre-dose, 0.5, 1, 2, 4, 6, 8, 10-12, and 24 hr time points or Day −7, C1D1, C1D8, and C2D1 at pre-dose, 1, 2, 4, 6, and 8 hr time points, or C1D1, C1D8, and C2D1 at pre-dose, 1, 2, 4, 6, and 8 hr time points. High fat meal was given prior to dosing of Compound 1 on Day −7. PD effects were measured by two methodologies: 1) depletion of CSF1R-expressing monocytes in peripheral blood (Cohorts 1-7) from C1D1, C1D15 and C2D1; and 2) increase of plasma levels of CSF1 and IL-34, the ligands for CSF1R (Cohorts 1-7) on C1D1, C1D15, and C2D1. For the CD16^+ monocyte assay, whole blood collected in an EDTA vacutainer was aliquoted into tubes and incubated with fluorescently-labeled antibodies (CD14-Alexa488 (BD Pharmingen); CD16-PE-Cy7 (BD Pharmingen); and TIE2-APC (R&D Systems). After incubation, red blood cells were lysed, and the remaining cells were washed several times before being analyzed on a flow cytometer. For the plasma CSF1 assay or IL-34, whole blood collected in an EDTA vacutainer was centrifuged, and the plasma was collected and frozen. Plasma levels of CSF1 or IL-34 were measured using a commercial ELISA kit (R&D Systems).
Cohort 1 had daily dosing.

Question: For `Cc1nc(-c2cnc(NC(C)C)n(C)c2=O)ccc1Oc1ccnc(-c2cnn(C)c2)c1` [Compound 1, 2-(isopropylamino)-3-methyl-5-(6-methyl-5-((2-(1-methyl-1H-pyrazol-4-yl)pyridin-4-yl)oxy)pyridin-2-yl)pyrimidin-4(3H)-one], which Cmax (20 mg, Cohort 3 20 mg Weekly after 5-day QD loading dose, C2D1, GM (CV %)) is on record?
Answer: 530 ng/mL

Question: And the AUC(0-t) (20 mg, Cohort 3 20 mg Weekly after 5-day QD loading dose, C2D1, GM (CV %), read-out: AUC0-8)?
Answer: 3380 ng·h/mL

Question: What about the Tmax (20 mg, Cohort 3 20 mg Weekly after 5-day QD loading dose, C2D1) of the same compound?
Answer: 1 h

Question: What about the Cmax (20 mg, Cohort 3 20 mg Weekly after 5-day QD loading dose, Day-7, GM (CV %)) of the same compound?
Answer: 242 ng/mL

Question: And the AUC(0-t) (20 mg, Cohort 3 20 mg Weekly after 5-day QD loading dose, Day-7, GM (CV %), read-out: AUC0-8)?
Answer: 1320 ng·h/mL

Question: What about the Tmax (20 mg, Cohort 3 20 mg Weekly after 5-day QD loading dose, Day-7) of the same compound?
Answer: 4 h

Question: And the Cmax (20 mg, Cohort 4 20 mg QD x 5 d, BIW maintenance dose, C1D1, Geo Mean)?
Answer: 268 ng/mL

Question: What about the AUC(0-t) (20 mg, Cohort 4 20 mg QD x 5 d, BIW maintenance dose, C1D1, Geo Mean, read-out: AUC0-8 h) of the same compound?
Answer: 1610 ng·h/mL

Question: And the Cmax (20 mg, Cohort 4 20 mg QD x 5 d, BIW maintenance dose, C1D8, Geo Mean)?
Answer: 685 ng/mL

Question: What about the AUC(0-t) (20 mg, Cohort 4 20 mg QD x 5 d, BIW maintenance dose, C1D8, Geo Mean, read-out: AUC0-8 h) of the same compound?
Answer: 4660 ng·h/mL

Question: And the Cmax (20 mg, Cohort 4 20 mg QD x 5 d, BIW maintenance dose, C2D1, Geo Mean)?
Answer: 642 ng/mL

Question: And the AUC(0-t) (20 mg, Cohort 4 20 mg QD x 5 d, BIW maintenance dose, C2D1, Geo Mean, read-out: AUC0-8 h)?
Answer: 4300 ng·h/mL

Question: What about the Cmax (20 mg, Cohort 4 20 mg QD x 5 d, BIW maintenance dose, Day -7, Geo Mean) of the same compound?
Answer: 183 ng/mL

Question: And the AUC(0-t) (20 mg, Cohort 4 20 mg QD x 5 d, BIW maintenance dose, Day -7, Geo Mean, read-out: AUC0-8 h)?
Answer: 1090 ng·h/mL

Question: And the Cmax (20 mg, Cohort 4 20 mg Twice Weekly after 5-day QD loading dose, C1D1, GM (CV %))?
Answer: 268 ng/mL

Question: And the AUC(0-t) (20 mg, Cohort 4 20 mg Twice Weekly after 5-day QD loading dose, C1D1, GM (CV %), read-out: AUC0-8)?
Answer: 1610 ng·h/mL

Question: And the Tmax (20 mg, Cohort 4 20 mg Twice Weekly after 5-day QD loading dose, C1D1)?
Answer: 0.75 h

Question: What about the Cmax (20 mg, Cohort 4 20 mg Twice Weekly after 5-day QD loading dose, C1D8, GM (CV %)) of the same compound?
Answer: 685 ng/mL

Question: And the AUC(0-t) (20 mg, Cohort 4 20 mg Twice Weekly after 5-day QD loading dose, C1D8, GM (CV %), read-out: AUC0-8)?
Answer: 4660 ng·h/mL

Question: What about the Tmax (20 mg, Cohort 4 20 mg Twice Weekly after 5-day QD loading dose, C1D8) of the same compound?
Answer: 2.25 h

Question: What about the Cmax (20 mg, Cohort 4 20 mg Twice Weekly after 5-day QD loading dose, C2D1, GM (CV %)) of the same compound?
Answer: 642 ng/mL

Question: What about the AUC(0-t) (20 mg, Cohort 4 20 mg Twice Weekly after 5-day QD loading dose, C2D1, GM (CV %), read-out: AUC0-8) of the same compound?
Answer: 4300 ng·h/mL

Question: And the Tmax (20 mg, Cohort 4 20 mg Twice Weekly after 5-day QD loading dose, C2D1)?
Answer: 0.5 h

Question: And the Cmax (20 mg, Cohort 4 20 mg Twice Weekly after 5-day QD loading dose, Day-7, GM (CV %))?
Answer: 183 ng/mL

Question: What about the AUC(0-t) (20 mg, Cohort 4 20 mg Twice Weekly after 5-day QD loading dose, Day-7, GM (CV %), read-out: AUC0-8) of the same compound?
Answer: 1090 ng·h/mL

Question: What about the Tmax (20 mg, Cohort 4 20 mg Twice Weekly after 5-day QD loading dose, Day-7) of the same compound?
Answer: 4 h

Question: And the AUC(0-t) (20 mg, Cohort 7 20 mg QD after 3-day 50 mg QD loading dose, C2D1, GM (CV %), read-out: AUC0-8)?
Answer: 7980 ng·h/mL

Question: And the Cmax (30 mg, Cohort 5 30 mg QD x 5 d, BIW maintenance dose, C1D1, Geo Mean)?
Answer: 600 ng/mL

Question: What about the AUC(0-t) (30 mg, Cohort 5 30 mg QD x 5 d, BIW maintenance dose, C1D1, Geo Mean, read-out: AUC0-8 h) of the same compound?
Answer: 3390 ng·h/mL

Question: And the Cmax (30 mg, Cohort 5 30 mg QD x 5 d, BIW maintenance dose, C1D8, Geo Mean)?
Answer: 1400 ng/mL

Question: What about the AUC(0-t) (30 mg, Cohort 5 30 mg QD x 5 d, BIW maintenance dose, C1D8, Geo Mean, read-out: AUC0-8 h) of the same compound?
Answer: 8800 ng·h/mL

Question: What about the Cmax (30 mg, Cohort 5 30 mg QD x 5 d, BIW maintenance dose, C2D1, Geo Mean) of the same compound?
Answer: 953 ng/mL

Question: And the AUC(0-t) (30 mg, Cohort 5 30 mg QD x 5 d, BIW maintenance dose, C2D1, Geo Mean, read-out: AUC0-8 h)?
Answer: 5420 ng·h/mL

Question: And the Cmax (30 mg, Cohort 5 30 mg QD x 5 d, BIW maintenance dose, Day -7, Geo Mean)?
Answer: 278 ng/mL

Question: And the AUC(0-t) (30 mg, Cohort 5 30 mg QD x 5 d, BIW maintenance dose, Day -7, Geo Mean, read-out: AUC0-8 h)?
Answer: 1390 ng·h/mL

Question: What about the Cmax (30 mg, Cohort 5 30 mg Twice Weekly after 5-day QD loading dose, C1D1, GM (CV %)) of the same compound?
Answer: 422 ng/mL

Question: What about the AUC(0-t) (30 mg, Cohort 5 30 mg Twice Weekly after 5-day QD loading dose, C1D1, GM (CV %), read-out: AUC0-8) of the same compound?
Answer: 2250 ng·h/mL

Question: What about the Tmax (30 mg, Cohort 5 30 mg Twice Weekly after 5-day QD loading dose, C1D1) of the same compound?
Answer: 1 h

Question: What about the Cmax (30 mg, Cohort 5 30 mg Twice Weekly after 5-day QD loading dose, C1D8, GM (CV %)) of the same compound?
Answer: 1160 ng/mL

Question: What about the AUC(0-t) (30 mg, Cohort 5 30 mg Twice Weekly after 5-day QD loading dose, C1D8, GM (CV %), read-out: AUC0-8) of the same compound?
Answer: 7160 ng·h/mL

Question: What about the Tmax (30 mg, Cohort 5 30 mg Twice Weekly after 5-day QD loading dose, C1D8) of the same compound?
Answer: 1 h

Question: And the Cmax (30 mg, Cohort 5 30 mg Twice Weekly after 5-day QD loading dose, C2D1, GM (CV %))?
Answer: 822 ng/mL

Question: What about the AUC(0-t) (30 mg, Cohort 5 30 mg Twice Weekly after 5-day QD loading dose, C2D1, GM (CV %), read-out: AUC0-8) of the same compound?
Answer: 5420 ng·h/mL

Question: And the Tmax (30 mg, Cohort 5 30 mg Twice Weekly after 5-day QD loading dose, C2D1)?
Answer: 1.5 h

Question: What about the Cmax (30 mg, Cohort 5 30 mg Twice Weekly after 5-day QD loading dose, Day-7, GM (CV %)) of the same compound?
Answer: 278 ng/mL

Question: What about the AUC(0-t) (30 mg, Cohort 5 30 mg Twice Weekly after 5-day QD loading dose, Day-7, GM (CV %), read-out: AUC0-8) of the same compound?
Answer: 1390 ng·h/mL

Question: And the Cmax (30 mg, Cohort 6 30 mg QD x 5 d, BIW maintenance dose (so in the source), C2D1, Geo Mean)?
Answer: 1150 ng/mL

Question: And the AUC(0-t) (30 mg, Cohort 6 30 mg QD x 5 d, BIW maintenance dose (so in the source), C2D1, Geo Mean, read-out: AUC0-8 h)?
Answer: 7290 ng·h/mL

Question: What about the Cmax (40 mg, Cohort 6 40 mg Twice Weekly after 5-day QD loading dose, C1D1, GM (CV %)) of the same compound?
Answer: 830 ng/mL

Question: And the AUC(0-t) (40 mg, Cohort 6 40 mg Twice Weekly after 5-day QD loading dose, C1D1, GM (CV %), read-out: AUC0-8)?
Answer: 4790 ng·h/mL

Question: And the Cmax (40 mg, Cohort 6 40 mg Twice Weekly after 5-day QD loading dose, C1D8, GM (CV %))?
Answer: 1860 ng/mL

Question: And the AUC(0-t) (40 mg, Cohort 6 40 mg Twice Weekly after 5-day QD loading dose, C1D8, GM (CV %), read-out: AUC0-8)?
Answer: 12000 ng·h/mL

Question: And the Tmax (40 mg, Cohort 6 40 mg Twice Weekly after 5-day QD loading dose, C1D8)?
Answer: 1 h

Question: What about the Cmax (40 mg, Cohort 6 40 mg Twice Weekly after 5-day QD loading dose, C2D1, GM (CV %)) of the same compound?
Answer: 1150 ng/mL

Question: What about the AUC(0-t) (40 mg, Cohort 6 40 mg Twice Weekly after 5-day QD loading dose, C2D1, GM (CV %), read-out: AUC0-8) of the same compound?
Answer: 7290 ng·h/mL

Question: What about the Tmax (40 mg, Cohort 6 40 mg Twice Weekly after 5-day QD loading dose, C2D1) of the same compound?
Answer: 1 h

Question: And the Cmax (40 mg, Cohort 6 40 mg Twice Weekly after 5-day QD loading dose, Day-7, GM (CV %))?
Answer: 454 ng/mL

Question: What about the AUC(0-t) (40 mg, Cohort 6 40 mg Twice Weekly after 5-day QD loading dose, Day-7, GM (CV %), read-out: AUC0-8) of the same compound?
Answer: 2250 ng·h/mL

Question: What about the Tmax (40 mg, Cohort 6 40 mg Twice Weekly after 5-day QD loading dose, Day-7) of the same compound?
Answer: 4 h

Question: And the Cmax (50 mg, Cohort 7 50 mg QD x 3 d, QD maintenance dose, C2D1, Geo Mean)?
Answer: 1250 ng/mL

Question: And the AUC(0-t) (50 mg, Cohort 7 50 mg QD x 3 d, QD maintenance dose, C2D1, Geo Mean, read-out: AUC0-8 h)?
Answer: 7980 ng·h/mL

Question: What about the Cmax (Cohort 7 20 mg QD after 3-day 50 mg QD loading dose, C1D1, GM (CV %)) of the same compound?
Answer: 440 ng/mL

Question: And the AUC(0-t) (Cohort 7 20 mg QD after 3-day 50 mg QD loading dose, C1D1, GM (CV %), read-out: AUC0-8)?
Answer: 2310 ng·h/mL

Question: And the Cmax (Cohort 7 20 mg QD after 3-day 50 mg QD loading dose, C1D8, GM (CV %))?
Answer: 1010 ng/mL

Question: And the AUC(0-t) (Cohort 7 20 mg QD after 3-day 50 mg QD loading dose, C1D8, GM (CV %), read-out: AUC0-8)?
Answer: 6740 ng·h/mL

Question: What about the Cmax (Cohort 7 20 mg QD after 3-day 50 mg QD loading dose, C2D1, GM (CV %)) of the same compound?
Answer: 840 ng/mL

Question: What about the Cmax (Cohort 7 20 mg QD after 3-day 50 mg QD loading dose, Day-7, GM (CV %)) of the same compound?
Answer: 272 ng/mL

Question: What about the AUC(0-t) (Cohort 7 20 mg QD after 3-day 50 mg QD loading dose, Day-7, GM (CV %), read-out: AUC0-8) of the same compound?
Answer: 800 ng·h/mL

Question: And the Tmax (Cohort 7 20 mg QD after 3-day 50 mg QD loading dose, Day-7)?
Answer: 5 h

Question: And the half-life (patients, dose cohorts 1 to 7, no accurate estimation)?
Answer: long half-life
